Assay results published in patent US6720346B2, “Thiazole benzamide derivatives and pharmaceutical compositions for inhibiting cell proliferation” (Agouron Pharmaceuticals, Inc., priority 2001, dated 2004).
Where a name gives a salt, the structure may show the parent alone.

Tests used:
human CDK4/cyclin D3 = target: T1, human CDK4/cyclin D3 (Homo sapiens, UniProt P11802); test: Inhibition of CDK4/cyclin D retinoblastoma kinase activity (Ki; % inhibition); type: biochemical; conditions: for Ki: apparent Ki, CDK4/cyclin D3, Rb substrate
T1 construct: made in house; host or cells: insect cells co-infected with baculovirus vectors
Outline: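 Insect-cell-expressed CDK4 with truncated cyclin D3 (1-264), 5 nM, phosphorylating His-tagged Rb fragment (386-928) with 25 μM [32/33P]ATP at pH 7.4, 30 °C, 20 min (60 min for tight binders). Filter capture, phosphorimager read; % inhibition at 30 nM compound, Ki from competitive or tight-binding fits.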

CDK2/cyclin A = target: T2, CDK2/cyclin A (Homo sapiens, UniProt P24941); test: Inhibition of CDK2/cyclin A retinoblastoma kinase activity (Ki; % inhibition); type: biochemical; conditions: for Ki: apparent Ki, CDK2/cyclin A, Rb substrate
T2 construct: made in house; host or cells: CDK2: insect cells (baculovirus); cyclin A: E. coli
Outline: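 Radiometric filter assay of CDK2/proteolyzed cyclin A (baculovirus-expressed human CDK2, 10 or 19 nM) phosphorylating an Rb fragment with 25 μM [³²P/³³P]ATP in pH 7.4 HEPES, 2% DMSO, at 30 °C for 60 or 75 min under initial-rate conditions. Library compounds screened at 30 nM for % inhibition; apparent Ki from concentration series fit to competitive or tight-binding inhibition equations.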

HCT-116 cell line = test: Inhibition of cell growth, MTT tetrazolium salt assay; type: cell-based; conditions: for IC50: Homo sapiens, HCT-116, 120 h, MTT, three to five days
Outline: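 Cells in McCoy's 5A medium were given 4 h before compound addition in 0.5% (v/v) DMSO, then incubated 3–5 days at 37 °C, 5% CO2. After 4 h with 0.2 mg/mL MTT, DMSO-solubilized formazan was read at 540 nm; 50% and 90% growth-inhibitory concentrations came from semi-log plots against vehicle controls.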

[1] = HCT-116 cells, 0.25 μM compound

T1 sequence (P11802 whole entry): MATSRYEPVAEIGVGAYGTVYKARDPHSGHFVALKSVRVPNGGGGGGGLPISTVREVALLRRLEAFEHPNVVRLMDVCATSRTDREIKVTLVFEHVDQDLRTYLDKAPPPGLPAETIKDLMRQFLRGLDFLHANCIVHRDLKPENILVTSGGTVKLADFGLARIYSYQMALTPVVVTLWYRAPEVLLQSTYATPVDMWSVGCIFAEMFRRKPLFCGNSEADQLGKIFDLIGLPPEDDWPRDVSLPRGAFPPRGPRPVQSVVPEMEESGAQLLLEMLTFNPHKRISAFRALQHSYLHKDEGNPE
T1 sequence (P30281 1-264 partner limits assumed): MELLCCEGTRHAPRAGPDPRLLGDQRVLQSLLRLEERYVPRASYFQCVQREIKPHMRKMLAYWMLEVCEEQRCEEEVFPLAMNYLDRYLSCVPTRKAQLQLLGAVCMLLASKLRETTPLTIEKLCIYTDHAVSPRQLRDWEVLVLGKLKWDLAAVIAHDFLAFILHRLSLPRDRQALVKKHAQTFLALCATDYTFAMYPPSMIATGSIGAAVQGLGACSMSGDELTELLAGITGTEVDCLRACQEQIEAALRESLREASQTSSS

SMILES | CDK4 % Inhibition at 0.03 μM (human CDK4/cyclin D3; 0.03 μM compound) [%] | CDK2 % Inhibition at 0.03 μM (CDK2/cyclin A; 0.03 μM compound) [%] | HCT-116 % Inhibition at 0.1 μM (HCT-116 cell line; HCT-116 cells, 0.1 μM compound) [%] | HCT-116 % Inhibition at 0.25 μM (HCT-116 cell line; [1]) [%] | CDK4 % Inhibition at 0.03 μM (human CDK4/cyclin D3; at 0.03 μM) [%] | CDK2 % Inhibition at 0.03 μM (CDK2/cyclin A; at 0.03 μM) [%] | HCT-116 % Inhibition at 0.25 μM (HCT-116 cell line; HCT-116, at 0.25 μM) [%] | other results
CCN(CC)CCN(C)C(=O)c1ccc(Nc2nc(N)c(C(=O)c3c(F)cccc3F)s2)cc1 [Example G298] | 30 | −9 | 0 | 46 | – | – | – | –
Nc1nc(Nc2ccc(C(=O)Nc3cccc(SC(F)(F)F)c3)cc2)sc1C(=O)c1c(F)cccc1F [Example G377] | −1 | 10 | 25 | 55 | – | – | – | –
Nc1nc(Nc2ccc(C(=O)NCCc3cccs3)cc2)sc1C(=O)c1c(F)cccc1F [Example A26, 4-[4-Amino-5-(2,6-difluoro-benzoyl)-thiazol-2-ylamino]-N-(2-thiophen-2-yl-ethyl)-benzamide] | – | – | – | – | – | – | – | Ki (human CDK4/cyclin D3): 0.02 µM; Ki (CDK2/cyclin A): 0.079 µM; IC50 (HCT-116 cell line): 0.17 µM
C#CCN(C)C(=O)c1ccc(Nc2nc(N)c(C(=O)c3c(F)cccc3F)s2)cc1 [Example G282] | 6 | −14 | 1 | 56 | – | – | – | –
Nc1nc(Nc2ccc(C(=O)NCC(O)c3ccccc3)cc2)sc1C(=O)c1c(F)cccc1F (stereo not drawn) [Example G104] | – | – | – | – | 14 | 8 | 91 | HCT-116 % Inhibition at 0.1 μM (HCT-116 cell line; HCT-116, at 0.1 μM): 38%
COc1cc(CNC(=O)c2ccc(Nc3nc(N)c(C(=O)c4c(F)cccc4F)s3)cc2)cc(OC)c1OC [Example G234] | 39 | 35 | 20 | 63 | – | – | – | –
CSc1ccccc1NC(=O)c1ccc(Nc2nc(N)c(C(=O)c3c(F)cccc3F)s2)cc1 [Example G31] | – | – | – | – | 4 | 4 | 75 | –
Nc1nc(Nc2ccc(C(=O)NCCCN3CCOCC3)cc2)sc1C(=O)c1c(F)cccc1F [Example G132] | – | – | – | – | 27 | 9 | 52 | HCT-116 % Inhibition at 0.1 μM (HCT-116 cell line; HCT-116, at 0.1 μM): 0%
Nc1nc(Nc2ccc(C(=O)Nc3ccc(Cl)cc3)cc2)sc1C(=O)c1c(F)cccc1F [Example G288] | 11 | −10 | 16 | 60 | – | – | – | –
CN(CCc1ccncc1)C(=O)c1ccc(Nc2nc(N)c(C(=O)c3c(F)cccc3F)s2)cc1 [Example G58] | – | – | – | – | 17 | 19 | 53 | –
COc1ccc(NC(=O)c2ccc(Nc3nc(N)c(C(=O)c4c(F)cccc4F)s3)cc2)cc1Cl [Example G59] | – | – | – | – | 3 | 25 | 53 | –
CC(CO)NC(=O)c1ccc(Nc2nc(N)c(C(=O)c3c(F)cccc3F)s2)cc1 (stereo not drawn) [Example G109] | – | – | – | – | 22 | 6 | – | HCT-116 % Inhibition at 0.1 μM (HCT-116 cell line; HCT-116, at 0.1 μM, 0.1 µM): 0%; HCT-116 % Inhibition at 0.25 μM (HCT-116 cell line; HCT-116, at 0.25 μM, 0.25 µM): 54%
CC(=O)N1CCC[C@H]1CNC(=O)c1ccc(Nc2nc(N)c(C(=O)c3c(F)cccc3F)s2)cc1 [Example A10, 4-[4-Amino-5-(2,6-difluoro-benzoyl)-thiazol-2S-ylamino]-N-(1-Acetyl-pyrrolidin-2S-ylmethyl)-benzamide] | – | – | – | – | – | – | – | Ki (human CDK4/cyclin D3): 0.049 µM; Ki (CDK2/cyclin A): 0.29 µM; IC50 (HCT-116 cell line): 1.6 µM
Nc1ccccc1CNC(=O)c1ccc(Nc2nc(N)c(C(=O)c3c(F)cccc3F)s2)cc1 [Example G384] | 23 | 45 | 38 | 84 | – | – | – | –
Nc1nc(Nc2ccc(C(=O)NCCCO)cc2)sc1C(=O)c1c(F)cccc1F [Example G334] | 8 | −2 | 6 | 41 | – | – | – | –
NC(=O)c1cccc(NC(=O)c2ccc(Nc3nc(N)c(C(=O)c4c(F)cccc4F)s3)cc2)c1 [Example G6] | – | – | – | – | 10 | −1 | 47 | –
CCSCCNC(=O)c1ccc(Nc2nc(N)c(C(=O)c3c(F)cccc3F)s2)cc1 [Example G283] | 10 | −6 | 16 | 75 | – | – | – | –
CC(O)c1cccc(NC(=O)c2ccc(Nc3nc(N)c(C(=O)c4c(F)cccc4F)s3)cc2)c1 (stereo not drawn) [Example G222] | 27 | 30 | 8 | 61 | – | – | – | –
CC(C)OCCNC(=O)c1ccc(Nc2nc(N)c(C(=O)c3c(F)cccc3F)s2)cc1 [Example G168] | – | – | – | – | 17 | 4 | 52 | HCT-116 % Inhibition at 0.1 μM (HCT-116 cell line; HCT-116, at 0.1 μM): 25%
CN1CCC[C@H]1CNC(=O)c1ccc(Nc2nc(N)c(C(=O)c3ccccc3S(C)(=O)=O)s2)cc1 [Example A73, 4-{4-Amino-5-(2-methanesulfonyl-benzoyl)-thiazol-2-ylamino}-N-(1-methyl-pyrrolidin-2S-ylmethyl)-benzamide Trifluoroacetic Acid Salt] | – | – | – | – | – | – | – | Ki (human CDK4/cyclin D3): 36 µM; Ki (CDK2/cyclin A): 1.2 µM; IC50 (HCT-116 cell line): > 5 µM
CCN1CCN(C(=O)c2ccc(Nc3nc(N)c(C(=O)c4c(F)cccc4F)s3)cc2)CC1 [Example G81] | – | – | – | – | 19 | 15 | 58 | –
COc1ccc(CCN(C)C(=O)c2ccc(Nc3nc(N)c(C(=O)c4c(F)cccc4F)s3)cc2)cc1OC [Example G361] | −1 | −3 | 26 | 48 | – | – | – | –
CCN(Cc1ccncc1)C(=O)c1ccc(Nc2nc(N)c(C(=O)c3c(F)cccc3F)s2)cc1 [Example G28] | – | – | – | – | 19 | 1 | 66 | –
Nc1nc(Nc2ccc(C(=O)NCCCCCCO)cc2)sc1C(=O)c1c(F)cccc1F [Example G358] | 7 | −5 | 21 | 55 | – | – | – | –
CC(C)N(Cc1ccccc1)C(=O)c1ccc(Nc2nc(N)c(C(=O)c3c(F)cccc3F)s2)cc1 [Example G70] | – | – | – | – | 10 | −4 | 53 | –
CSc1ccc(NC(=O)c2ccc(Nc3nc(N)c(C(=O)c4c(F)cccc4F)s3)cc2)cc1 [Example G255] | 0 | −25 | 25 | 63 | – | – | – | –
Nc1nc(Nc2ccc(C(=O)NC3CCS(=O)(=O)C3)cc2)sc1C(=O)c1c(F)cccc1F (stereo not drawn) [Example G120] | – | – | – | – | 23 | 14 | 54 | HCT-116 % Inhibition at 0.1 μM (HCT-116 cell line; HCT-116, at 0.1 μM): 0%
CC(C)[C@@H](CO)NC(=O)c1ccc(Nc2nc(N)c(C(=O)c3c(F)cccc3F)s2)cc1 [Example G152] | – | – | – | – | 7 | 16 | 53 | HCT-116 % Inhibition at 0.1 μM (HCT-116 cell line; HCT-116, at 0.1 μM): 5%
Nc1nc(Nc2ccc(C(=O)N3CCN(CCCO)CC3)cc2)sc1C(=O)c1c(F)cccc1F [Example G12] | – | – | – | – | 10 | −14 | 48 | –
